# US20130150317A1, “COMPOUNDS FOR THE TREATMENT OF RENAL CELL CARCINOMA” (Myrovlytis Technology Ventures Limited, priority 2010, published 2013)
# Tested on: UOK cells with/without FLCN expression
# Test: Effect of low-concentration rapamycin on cell proliferation (preliminary data)
# Conditions: 1 nmol/L rapamycin; data not shown
smiles,measurement,value
CO[C@H]1C[C@@H]2CC[C@@H](C)[C@@](O)(O2)C(=O)C(=O)N2CCCC[C@H]2C(=O)O[C@H]([C@H](C)C[C@@H]2CC[C@@H](O)[C@H](OC)C2)CC(=O)[C@H](C)/C=C(\C)[C@@H](O)[C@@H](OC)C(=O)[C@H](C)C[C@H](C)/C=C/C=C/C=C/1C [rapamycin],reduction on cell proliferation,10%-15
